In the assay the test system is CEM cells HIV-1 protection, formazan growth assay. Description: NCI AIDS Antiviral Assay. Particulars: for IC50: measured here: growth of uninfected CEM cells. In a few lines: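 Human CEM cells, uninfected and HIV-1-infected, received five drug concentrations, and growth was read by soluble formazan assay. Compounds giving at least 50% protection were retested; reproducible 100% protection defined confirmed active.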

Usually EC50 stands for the concentration giving half of the maximal effect. What is called IC50 is the point on the concentration scale where inhibition reaches its midpoint. Read a high IC50 as lower potency.

The source made the active and inactive calls.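 The calls were made as follows: active = compounds giving half or more protection of infected cells from virus-caused growth loss, again on retest; inactive = the rest.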

`Cc1cc(OC(=O)c2c(C)cc(OC(=O)c3c(C)cc(O)cc3O)cc2O)cc(O)c1C(=O)O`: the EC50 was more than 77.6 µM and the IC50 was more than 77.6 µM. Regarding `O=c1n(CC2CS2)c2ccccc2n1CC1CS1` (centres undefined), the EC50 was more than 339 µM and the IC50 turned out to be 6.61 µM. In the same order, the values of `CC1(Br)C(=O)NC(=O)N(C2C=CC(CO)O2)C1O` (centres undefined) are more than 200 µM and more than 200 µM. In the same order, the values of `O=C1C(=O)c2ccccc2C(O)=C1C1CCCCC1` are more than 263 µM and 40.7 µM. In the same order, the values of `CCC(C)COC(=O)c1ccc(N=Cc2ccc(C=Nc3ccc(C(=O)OCC(C)CC)cc3)cc2)cc1` (centres undefined) are more than 2.82 µM and more than 2.82 µM. Regarding `C[C@]12CC[C@@H]3c4cc(Br)c(O)c(Br)c4CC[C@H]3[C@@H]1CC(Br)C2=O` (some centres undefined), the EC50 was more than 200 µM and the IC50 came out at 3.47 µM. Turning to `Cn1c(=O)nc2n(-c3ccc(F)c(F)c3)c3ccccc3nc-2c1=O`, the result was inactive. As to `CCCCNC(=O)c1cc(S(=O)(=O)n2cc[nH]c2=O)c(SC)cc1Cl`, the EC50 is more than 200 µM and the IC50 was more than 200 µM. `CN(C)c1nc(=NCc2ccccc2)ss1`: the EC50 was more than 200 µM and the IC50 turned out to be 10.2 µM. As for `C[n+]1c2ccccc2n2c3ccccc3c(NCCCn3ccnc3)c(C#N)c21`, the EC50 is more than 20 µM and the IC50 was 1.1 µM. `CC1CC[C@]2(C(=O)O)CCC3(C)C(=CCC4[C@@]5(C)CC[C@H](OS(=O)(=O)c6ccccc6)C(C)(C)C5CC[C@]43C)[C@@H]2[C@H]1C` (some centres undefined): the result was inactive. As for `Cc1ccc2oc(=O)c(-c3ccccc3)nc2c1`, the EC50 was more than 21.9 µM and the IC50 is more than 21.9 µM. As for `NNC(=O)C(=O)NN=C(C(Cl)(Cl)CO)C(Cl)(Cl)CO`, the EC50 was more than 20.4 µM and the IC50 was more than 20.4 µM. On to `COc1ccc2c(c1)CCC1=C2CCS1(=O)=O`, for which the EC50 was more than 200 µM and the IC50 is more than 200 µM. For the compound `COC(=O)[C@@]12CC(C(C)C)[C@H]3CC(C(=O)C=C1OC)[C@H]32` (some centres undefined), the result was inactive. Consider `CCCc1cc(=O)oc2c3c(cc(OC(C)COC)c12)O[C@H](C)[C@@H](C)[C@@H]3O` (some centres undefined), for which the EC50 is 4.68 µM and the IC50 was 29.5 µM.

Consider `Cn1c(=O)nc2n(-c3cccc(F)c3)c3ccccc3nc-2c1=O`, for which the result was inactive. `CNS(=O)(=O)NNS(=O)(=O)c1ccccc1`: the EC50 was more than 933 µM and the IC50 was more than 200 µM. On to `CCC(C)(C)c1ccc(OP(=S)(S)Oc2ccc(C(C)(C)CC)cc2)cc1`, for which the EC50 was more than 200 µM and the IC50 worked out at 37.2 µM. Turning to `N#C/C(=C\c1c(Cl)cccc1Cl)c1ccccc1`, the EC50 was more than 50.1 µM and the IC50 is 28.8 µM.

For `O=Nc1ccccc1N=O`, the result was inactive. Consider `O=C(O/N=C1/CCCC/C1=C\c1ccccc1)c1ccc(Cl)cc1`, for which the result was inactive. Consider `CC1=C2C3OC(=O)C(C)C3C(O)C[C@@]2(C)C(=O)CC1` (some centres undefined), for which the outcome was inactive.

Regarding `C/C=C(/C1CC(=O)N2CCc3c([nH]c4ccccc34)C2C1)[Si](C)(C)C` (centres undefined), the EC50 is more than 10.7 µM and the IC50 is more than 10.7 µM. Regarding `CCn1c(=O)c2c3cc(O)ccc3oc2c2ccc(O)cc21`, the EC50 is more than 200 µM and the IC50 is more than 200 µM. As for `[O-][N+](=Nc1ccccc1CO)c1ccccc1CO`, the EC50 is 110 µM and the IC50 is more than 200 µM. As for `CCCN(CCC)C(=O)c1nc(N)nc(-c2ccc(OC)cc2)c1-c1ccc(OC)cc1`, the EC50 was more than 16.6 µM and the IC50 is more than 16.6 µM.

In the case of `Cc1cn(COCCCO[Si](C)(C)C(C)(C)C)c(=O)[nH]c1=O`, the EC50 was 112 µM and the IC50 stood at 174 µM.

Regarding `Nc1ncnc2c1ncn2C1SC(CO)C(O)C1O` (centres undefined), the EC50 is 45.7 µM and the IC50 came out at 148 µM. In the same order, the values of `O=C(CCc1ccc(O)c(O)c1)NCCc1ccccc1` are more than 200 µM and 21.9 µM. For `COc1ccc(N2C(=O)C3c4[nH]c5ccccc5c4C4CCC(C(C)(C)C)CC4C3C2=O)c(C)c1` (centres undefined), in that order: more than 200 µM and more than 200 µM. For `Nc1c(O)c(C(=O)O)cc2ccccc12`, in that order: more than 200 µM and 17.8 µM.

For `COC(=O)[C@H](C)NC(=O)[C@H](CSC)N1C(=O)N[C@@H](C(C)C)C1=O`, the EC50 was more than 200 µM and the IC50 amounted to 24.5 µM. Consider `C/C=C(\C)c1cc(O)c(C)c2c1Oc1cc(O)c(Cl)c(C)c1C(=O)O2`, for which the result was inactive. On to `CCOC(=O)C1SC(=Nc2ccc(OC)c(OC)c2)N=C1C` (centres undefined), for which the EC50 was more than 22.4 µM and the IC50 is more than 22.4 µM. As to `CCCC(=O)Nc1cc2c3c(c1)CCCN3CCC2`, the EC50 was more than 200 µM and the IC50 was determined as 79.4 µM. In the same order, the values of `NC(=S)N/C=C(/c1ccc(Cl)cc1Cl)S(=O)(=O)Cc1ccc(Cl)cc1Cl` are more than 100 µM and more than 100 µM. With `CCS(=O)(=O)c1cc(=O)[nH]c(=O)[nH]1`, the EC50 was 100 µM and the IC50 amounted to 240 µM. In the same order, the values of `CC(C)(C)OC(=O)N1CC(C)(C)N2C(=O)C3(CCCO3)C12` (centres undefined) are 33.9 µM and 347 µM.

Consider `N[C@H](CCC(=O)NCP(=O)(O)O)C(=O)O`, for which the EC50 is more than 200 µM and the IC50 is more than 200 µM. As for `O=C(NNC(=S)NCc1ccccc1)C12CC3CC(CC(C3)C1)C2`, the EC50 was more than 200 µM and the IC50 amounted to 25.1 µM.

For the compound `CC(NCCNC(C)c1cccnc1)c1cccnc1` (centres undefined), the EC50 was more than 200 µM and the IC50 was more than 200 µM. Regarding `CC(=O)NC(C)(C)C1CCC(C)CC1` (centres undefined), the EC50 is more than 200 µM and the IC50 was more than 200 µM. Turning to `O=C(O)c1cc(O)c2c(c1)C(=O)c1cc(O)cc(O)c1C2=O`, the outcome was inactive. Still for that read-out and setting: next, `O=C(N/C(=C\c1ccc([N+](=O)[O-])cc1)c1nc2[nH]c(=S)[nH]c(=O)c2[nH]1)c1ccccc1`: “inactive”. For `CCCc1cc(=O)oc2c3c(c4c(c12)OC(C)(C)C=C4)O[C@@H](C)[C@H](C)[C@H]3O`, the EC50 is more than 51.3 µM and the IC50 was 17 µM. On to `Cc1ccc(-c2cc(=O)c3cc(C)c(C)c(C(=O)O)c3o2)cc1[N+](=O)[O-]`, for which the outcome was inactive. Take `COc1cc(CC2c3cc(OC)c(OC)cc3CCN2C)c(Oc2cc3c(cc2OC)-c2c(OC)c(OC)c(OC)c4c2C(C3)N(C)CC4)cc1OC` (centres undefined): the outcome was inactive. For the compound `COc1ccc(C(=O)CCN(C)C)cc1`, the EC50 is more than 200 µM and the IC50 was found to be 36.3 µM. For `CCCCCCCCCCN(CCCCCCCCCC)CC(=O)Nc1ccc(S(=O)(=O)c2ccc(NC(=O)CN(CCCCCCCCCC)CCCCCCCCCC)cc2)cc1`, in that order: more than 50.1 µM and 3.02 µM. On to `COc1cc2c3cc1Oc1c(O)c(OC)cc4c1[C@H](Cc1ccc(cc1)Oc1cc(ccc1O)C[C@H]3N(C)CC2)N(C)CC4`, for which the outcome was inactive. On the same count and under the same terms, under `CN=C(NC(=S)N(C)C)N(C)C` stands “inactive”.

Turning to `OCCN=C1c2ccccc2C2C(c3ccccc31)C1c3ccccc3C(=NCCO)c3ccccc3C21` (centres undefined), the EC50 was more than 200 µM and the IC50 worked out at 24 µM. In the same order, the values of `O=C(N[C@H]1c2ccsc2/C(=N/O)[C@H]1O)C(F)(F)F` are more than 200 µM and more than 200 µM. In the same order, the values of `COc1cc(C2C(Cl)C(=O)N2NC(=O)c2ccc(NC(C)=O)cc2)ccc1O` (centres undefined) are more than 200 µM and more than 200 µM. For `CC1(O)OC(=O)c2ccc3ccccc3c21` (centres undefined), in that order: more than 398 µM and more than 398 µM. Take `O=C(COc1ccc2c(=O)cc(-c3ccc(Cl)cc3)oc2c1)N1CCN(c2ccccc2)CC1`: the EC50 was 0.813 µM and the IC50 was 20.9 µM. With `CC(C)=CC1c2[nH]c3ccccc3c2CC(C(=O)O)N1C(=O)OC(C)(C)C(Cl)(Cl)Cl` (centres undefined), the outcome was inactive.

On to `O=C(CSc1nnc(-c2ccc(N=Cc3ccc(Cl)cc3)cc2)o1)Nc1ccc([N+](=O)[O-])cc1`, for which the EC50 was more than 38 µM and the IC50 was 15.5 µM.

For the compound `C#CCCOC(=O)c1ccccc1OC(C)=O`, the EC50 was more than 200 µM and the IC50 was more than 200 µM. Take `C=CCOc1ccc(C2(c3ccc(OCC=C)cc3)C(=O)Nc3ccccc32)cc1`: the EC50 was more than 200 µM and the IC50 turned out to be 44.7 µM.

Turning to `O=[N+]([O-])c1cc2c(c([N+](=O)[O-])c1)NCc1ccccc1O2`, the EC50 was more than 200 µM and the IC50 is more than 200 µM. On to `O=C1NCCS(=O)(=O)N[C@@H](CC2=CC=CCC2)C(=O)N2CCCC12` (some centres undefined), for which the EC50 was more than 708 µM and the IC50 was more than 708 µM.

In the case of `CC1(C)CCCOc2ccc(C(=O)O)cc21`, the EC50 is more than 200 µM and the IC50 was more than 200 µM. Consider `NNC(N)Nc1ccccc1` (centres undefined), for which the EC50 was more than 200 µM and the IC50 was more than 200 µM. For the compound `COc1cc2cc[n+]3c(C)c4cc(OC)c(OC)cc4c([O-])c3c2cc1OC`, the EC50 is more than 200 µM and the IC50 was 123 µM. `O=C(OCCOCCOC(=O)c1c[nH]cc1-c1ccccc1)c1c[nH]cc1-c1ccccc1`: the outcome was inactive.

For `COc1ccc(N2C(=O)C3c4[nH]c5ccccc5c4C4CC(C)CC(C)C4C3C2=O)cc1` (centres undefined), the EC50 is more than 2.45 µM and the IC50 was more than 2.45 µM. For `Cc1ccc(S(=O)(=O)SCCCSS(=O)(=O)c2ccc(C)cc2)cc1`, the EC50 is more than 89.1 µM and the concentration for half-maximal inhibition (IC50) stood at 15.5 µM. In the same order, the values of `O=C(O)C1=C(C(=O)O)C2CCC1C2` are more than 200 µM and more than 200 µM. For `NCC1=NCCN1`, in that order: more than 200 µM and more than 200 µM. Consider `C1CNCCNCCN1`, for which the EC50 was more than 200 µM and the IC50 was more than 200 µM. Consider `Cc1[nH]c2nccn2c(=O)c1CCO`, for which the EC50 was more than 200 µM and the 50% inhibitory concentration (IC50) was more than 200 µM. As for `CCCCCCCCCCn1nnc2c(=O)[nH]c(N)nc21`, the EC50 was more than 200 µM and the IC50 was determined as 52.5 µM.

Take `CCC1OC2C(CC=C(C)C)=C3OC(C)(O)C(C)(CC)C(OC(=O)c4ccccc4)C3=C3OC(=O)C=C1C32` (centres undefined): the EC50 is more than 200 µM and the IC50 turned out to be 18.6 µM.
